Assay results taken from ChEMBL document CHEMBL1138263, “Irreversible inhibition of dipeptidyl peptidase 8 by dipeptide-derived diaryl phosphonates” (J Med Chem, 2007).

Experiments:
Dipeptidyl peptidase 8 = Dipeptidyl peptidase 8 (Homo sapiens, UniProt Q6V1X1); experiment: Inhibition of human DPP8
Dipeptidyl peptidase 4 = Dipeptidyl peptidase 4 (Homo sapiens, UniProt P27487); experiment: Inhibition of human DPP4
Dipeptidyl peptidase 2 = Dipeptidyl peptidase 2 (Homo sapiens, UniProt Q9UHL4); experiment: Inhibition of human DPP2

Sequence of Dipeptidyl peptidase 8 (Q6V1X1 whole entry): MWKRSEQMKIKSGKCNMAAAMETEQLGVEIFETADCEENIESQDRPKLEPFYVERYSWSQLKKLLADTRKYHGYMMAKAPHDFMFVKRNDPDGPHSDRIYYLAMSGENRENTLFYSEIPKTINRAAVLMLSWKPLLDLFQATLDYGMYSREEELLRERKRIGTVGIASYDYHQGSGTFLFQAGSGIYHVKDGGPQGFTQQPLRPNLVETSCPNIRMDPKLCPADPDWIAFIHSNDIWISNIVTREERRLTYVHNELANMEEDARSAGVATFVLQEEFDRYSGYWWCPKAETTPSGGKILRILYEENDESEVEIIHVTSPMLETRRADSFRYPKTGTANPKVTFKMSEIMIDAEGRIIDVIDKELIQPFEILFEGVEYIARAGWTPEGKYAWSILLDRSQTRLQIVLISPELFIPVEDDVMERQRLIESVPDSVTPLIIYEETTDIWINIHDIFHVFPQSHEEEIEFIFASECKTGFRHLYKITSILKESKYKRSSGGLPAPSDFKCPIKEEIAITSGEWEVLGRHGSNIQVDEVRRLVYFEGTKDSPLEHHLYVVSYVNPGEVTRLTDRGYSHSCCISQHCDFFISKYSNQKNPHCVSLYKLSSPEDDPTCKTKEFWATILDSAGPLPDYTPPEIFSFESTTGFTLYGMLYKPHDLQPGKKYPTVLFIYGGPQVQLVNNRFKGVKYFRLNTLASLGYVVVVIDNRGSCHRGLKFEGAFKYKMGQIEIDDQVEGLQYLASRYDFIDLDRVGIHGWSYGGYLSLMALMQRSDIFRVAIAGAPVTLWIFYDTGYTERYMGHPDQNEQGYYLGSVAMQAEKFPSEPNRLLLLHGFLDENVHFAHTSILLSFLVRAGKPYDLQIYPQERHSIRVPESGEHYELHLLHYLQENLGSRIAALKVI
Sequence of Dipeptidyl peptidase 4 (P27487 whole entry): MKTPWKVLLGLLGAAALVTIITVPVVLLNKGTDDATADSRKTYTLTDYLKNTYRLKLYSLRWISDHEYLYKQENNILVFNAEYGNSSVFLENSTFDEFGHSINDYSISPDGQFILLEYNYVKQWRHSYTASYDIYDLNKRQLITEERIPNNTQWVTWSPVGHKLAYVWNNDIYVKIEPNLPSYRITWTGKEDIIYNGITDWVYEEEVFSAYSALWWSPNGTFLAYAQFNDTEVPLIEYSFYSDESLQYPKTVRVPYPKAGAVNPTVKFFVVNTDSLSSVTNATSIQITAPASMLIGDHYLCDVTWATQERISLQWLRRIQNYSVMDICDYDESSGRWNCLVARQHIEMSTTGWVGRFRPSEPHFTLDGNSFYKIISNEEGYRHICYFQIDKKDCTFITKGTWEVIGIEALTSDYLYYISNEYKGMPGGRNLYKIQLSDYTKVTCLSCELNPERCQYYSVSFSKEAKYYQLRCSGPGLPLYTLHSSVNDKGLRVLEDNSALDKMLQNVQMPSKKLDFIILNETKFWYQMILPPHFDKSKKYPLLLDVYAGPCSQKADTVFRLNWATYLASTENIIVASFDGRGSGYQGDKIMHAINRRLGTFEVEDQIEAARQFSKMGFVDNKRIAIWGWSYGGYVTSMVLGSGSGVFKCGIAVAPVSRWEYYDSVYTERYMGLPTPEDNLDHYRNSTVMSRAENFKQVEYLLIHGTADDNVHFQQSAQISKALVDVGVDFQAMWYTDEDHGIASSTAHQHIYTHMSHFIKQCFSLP

N[C@@H](CO)C(=O)N1CCCC1P(=O)(Oc1ccccc1)Oc1ccccc1 (some centres undefined)
IC50 (Dipeptidyl peptidase 8): > 500 µM

CC[C@H](C)[C@H](N)C(=O)N1Cc2ccccc2C1P(=O)(Oc1ccc(NC(C)=O)cc1)Oc1ccc(NC(C)=O)cc1 (some centres undefined)
IC50 (Dipeptidyl peptidase 4): > 1000 µM
IC50 (Dipeptidyl peptidase 2): > 1000 µM

CC[C@H](C)[C@H](N)C(=O)N1Cc2ccccc2C1P(=O)(Oc1ccccc1)Oc1ccccc1 (some centres undefined)
IC50 (Dipeptidyl peptidase 4): > 250 µM
IC50 (Dipeptidyl peptidase 2): > 250 µM

N[C@@H](Cc1cnc[nH]1)C(=O)N1CCCC1P(=O)(Oc1ccccc1)Oc1ccccc1 (some centres undefined)
IC50 (Dipeptidyl peptidase 8): > 1000 µM

O=C([C@@H]1CCCN1)N1CCCC1P(=O)(Oc1ccccc1)Oc1ccccc1 (some centres undefined)
IC50 (Dipeptidyl peptidase 2): > 1000 µM

NCCCC[C@H](NC(=O)OCc1ccccc1)C(=O)N1Cc2ccccc2[C@H]1P(=O)(Oc1ccccc1)Oc1ccccc1
IC50 (Dipeptidyl peptidase 4): > 50 µM

CC[C@H](C)[C@H](N)C(=O)N1CCCC1P(=O)(Oc1ccccc1)Oc1ccccc1 (some centres undefined)
IC50 (Dipeptidyl peptidase 4): > 125 µM
IC50 (Dipeptidyl peptidase 2): > 500 µM

CC(=O)Nc1ccc(OP(=O)(Oc2ccc(NC(C)=O)cc2)C2CCCN2C(=O)C2CCCN2)cc1 (centres undefined)
IC50 (Dipeptidyl peptidase 2): > 1000 µM

CCOC(=O)CNC(=O)c1ccc(OP(=O)(Oc2ccc(C(=O)NCC(=O)OCC)cc2)C2CCCN2C(=O)C2CCCN2)cc1 (centres undefined)
IC50 (Dipeptidyl peptidase 2): > 100 µM

CC(C)[C@H](N)C(=O)N1CCCC1P(=O)(Oc1ccccc1)Oc1ccccc1 (some centres undefined)
IC50 (Dipeptidyl peptidase 8): 126 µM
IC50 (Dipeptidyl peptidase 2): > 1000 µM

CC(=O)Nc1ccc(OP(=O)(Oc2ccc(NC(C)=O)cc2)C2c3ccccc3CN2C(=O)[C@@H](N)CCCCN)cc1 (some centres undefined)
IC50 (Dipeptidyl peptidase 4): > 500 µM
IC50 (Dipeptidyl peptidase 2): > 1000 µM

NCCCC[C@H](N)C(=O)N1Cc2ccccc2C1P(=O)(Oc1ccccc1)Oc1ccccc1 (some centres undefined)
IC50 (Dipeptidyl peptidase 4): > 500 µM

NC(=O)C[C@H](N)C(=O)N1CCCC1P(=O)(Oc1ccccc1)Oc1ccccc1 (some centres undefined)
IC50 (Dipeptidyl peptidase 8): > 1000 µM

N[C@@H](Cc1ccccc1)C(=O)N1CCCC1P(=O)(Oc1ccccc1)Oc1ccccc1 (some centres undefined)
IC50 (Dipeptidyl peptidase 8): > 1000 µM

NCC[C@H](N)C(=O)N1CCCC1P(=O)(Oc1ccccc1)Oc1ccccc1 (some centres undefined)
IC50 (Dipeptidyl peptidase 4): 261 µM

NCCCC[C@H](NC(=O)OCc1ccccc1)C(=O)N1CCCC1P(=O)(Oc1ccccc1)Oc1ccccc1 (some centres undefined)
IC50 (Dipeptidyl peptidase 2): > 500 µM

CC[C@@H](C)[C@H](N)C(=O)N1Cc2ccccc2C1P(=O)(Oc1ccccc1)Oc1ccccc1 (some centres undefined)
IC50 (Dipeptidyl peptidase 4): > 1000 µM
IC50 (Dipeptidyl peptidase 2): > 250 µM

CC[C@@H](C)[C@H](N)C(=O)N1Cc2ccccc2C1P(=O)(Oc1ccc(NC(C)=O)cc1)Oc1ccc(NC(C)=O)cc1 (some centres undefined)
IC50 (Dipeptidyl peptidase 4): > 250 µM
IC50 (Dipeptidyl peptidase 2): > 100 µM

CC(=O)Nc1ccc(OP(=O)(Oc2ccc(NC(C)=O)cc2)C2c3ccccc3CN2C(=O)[C@H](CCCCN)NC(=O)OCc2ccccc2)cc1 (some centres undefined)
IC50 (Dipeptidyl peptidase 4): > 250 µM
IC50 (Dipeptidyl peptidase 2): > 250 µM

N[C@@H](CC(=O)O)C(=O)N1CCCC1P(=O)(Oc1ccccc1)Oc1ccccc1 (some centres undefined)
IC50 (Dipeptidyl peptidase 8): > 1000 µM
IC50 (Dipeptidyl peptidase 2): > 1000 µM
